Paper PMC8667930, “Novel sulphonamide-bearing methoxyquinazolinone derivatives as anticancer and apoptosis inducers: synthesis, biological evaluation and in silico studies” (Journal of Enzyme Inhibition and Medicinal Chemistry, 2021)

Tests used:
[1] = test system: MCF-7 cells (human breast cancer cell line); assay: MTT cytotoxicity assay, MCF-7; format: cell-based; settings: mean ± SD (n = 3), NA = no activity; for IC50: Homo sapiens, MCF7, 48 h treatment; for IC50, MCF-7: 48 h treatment
Method: (§1) The MTT assay was performed to test the antiproliferative activity of the synthesised compounds, as per the methodology described by Alqahtani and co-workers[35]. Briefly, A549, HepG2, LoVo, MCF-7 and HUVEC cell lines were seeded in 96-cell culture plates (5 × 10^4 per well) and allowed 24 h for adherence. The cells were then treated with different concentrations of each compound, and 5-fluorouracil was used as a positive control. Following the treatment period (48 h), 10 µL of MTT solution (5 mg/mL) was added to each well and the plates were incubated at 37 °C for 2–4 h. Isopropanol (100 µL) acidified with 0.1 N HCl was added to solubilise the formazan products and the plate was kept on a shaker for 10 min. The optical density of each mixture was measured at 570 nm using an enzyme-linked immunosorbent assay plate reader (ELISA plate reader, Bio-Tek, USA). The concentrations of tested compounds required to inhibit cell growth by 50% (IC50) were calculated using a dose-response curve. Cell survival was calculated using the following equation: Cell survival (%)=(OD of treated sample)/(OD of untreated sample)×100

[2] = test system: HepG2 cells (liver cancer); assay: MTT cytotoxicity assay, HepG2; format: cell-based; settings: mean ± SD (n = 3), NA = no activity; for IC50: Homo sapiens, HepG2, 48 h treatment; for IC50, HepG2: 48 h treatment
Method: as §1

[3] = test system: HUVEC (normal human umbilical vein endothelial cells); assay: MTT cytotoxicity assay, HUVEC; format: cell-based; settings: 48 h treatment, mean ± SD (n = 3), NA = no activity; for IC50: Homo sapiens, HUVEC
Method: as §1

[4] = test system: A549 cells (non-small cell lung carcinoma); assay: MTT cytotoxicity assay, A549; format: cell-based; settings: mean ± SD (n = 3), NA = no activity; for IC50: Homo sapiens, A549, 48 h treatment; for IC50, A549: 48 h treatment
Method: as §1

[5] = test system: LoVo cells (colon cancer); assay: MTT cytotoxicity assay, LoVo; format: cell-based; settings: 48 h treatment, mean ± SD (n = 3), NA = no activity; for IC50: Homo sapiens, LoVo
Method: as §1

In the case of CCc1ccc(NC(=O)CSc2nc3c(OC)cccc3c(=O)n2-c2ccc(S(N)(=O)=O)cc2)cc1 [Compound 11, N-(4-Ethylphenyl)-2-((8-methoxy-4-oxo-3-(4-sulphamoylphenyl)-3,4-dihydroquinazolin-2-yl)thio) acetamide], the IC50 [1] is reported as 29.4 ± 0.33 µM, the IC50 [2] is reported as 42.7 ± 0.84 µM and the melting point is reported as 280 to 282 °C. It also gave an IC50 [3] of 32.9 ± 1.4 µM and an IC50 [4] of 50.5 ± 1.73 µM.

For O=c1[nH]cc(F)c(=O)[nH]1 [5-Flurouracil, 5-Fluorouracil, reference compound], the IC50 [5] was 90.71 ± 0.5 µM, the IC50 [1] was 95.63 ± 0.3 µM and the IC50 [2] was 132.4 ± 0.6 µM. The IC50 [3] was 167 ± 0.2 µM and the IC50 [4] was 98.86 ± 0.01 µM.

With COc1cccc2c(=O)n(-c3ccc(S(N)(=O)=O)cc3)c(SCC(=O)Nc3ccc(C)cc3)nc12 [Compound 8, 2-((8-Methoxy-4-oxo-3-(4-sulphamoylphenyl)-3,4-dihydroquinazolin-2-yl)thio)-N-(p-tolyl) acetamide] the “IC50, LoVo” value [5] was “no activity”, the “IC50, MCF-7” value [1] was “no activity” and the “IC50, HepG2” value [2] was “no activity”. For the same compound, the melting point was > 350 °C, the “IC50, HUVEC” value [3] was “no activity” and the “IC50, A549” value [4] was “no activity”.

Work on COc1cc(NC(=O)CSc2nc3c(OC)cccc3c(=O)n2-c2ccc(S(N)(=O)=O)cc2)cc(OC)c1OC [Compound 15, 2-((8-Methoxy-4-oxo-3-(4-sulphamoylphenyl)-3,4-dihydroquinazolin-2-yl)thio)-N-(3,4,5-trimethoxyphenyl) acetamide] yielded an IC50 [5] of 47.5 ± 4.08 µM, an IC50 [1] of 74 ± 2.16 µM and an IC50 [2] of 75.2 ± 0.96 µM. For the same compound, the melting point was 290 to 292 °C, the IC50 [3] was 79 ± 1.09 µM and the IC50 [4] was 75 ± 1.74 µM.

In the case of COc1cccc2c(=O)n(-c3ccc(S(N)(=O)=O)cc3)c(SCC(=O)Nc3c(C)cccc3[N+](=O)[O-])nc12 [Compound 17, 2-((8-Methoxy-4-oxo-3-(4-sulphamoylphenyl)-3,4-dihydroquinazolin-2-yl)thio)-N-(2-methyl-6-nitrophenyl) acetamide], the “IC50, LoVo” value [5] is reported as “no activity”, the “IC50, MCF-7” value [1] is reported as “no activity” and the “IC50, HepG2” value [2] is reported as “no activity”. The melting point was > 350 °C, the “IC50, HUVEC” value [3] was “no activity” and the “IC50, A549” value [4] was “no activity”.

COc1cccc2c(=O)n(-c3ccc(S(N)(=O)=O)cc3)c(SCC(=O)Nc3ccc([N+](=O)[O-])cc3C)nc12 [Compound 16, 2-((8-Methoxy-4-oxo-3-(4-sulphamoylphenyl)-3,4-dihydroquinazolin-2-yl)thio)-N-(2-methyl-4-nitrophenyl) acetamide] gave an IC50 [5] of 40.98 ± 0.12 µM, an IC50 [1] of 39.9 ± 0.57 µM and an IC50 [2] of 75.7 ± 1.85 µM. For the same compound, the melting point was > 350 °C, the IC50 [3] was 80.8 ± 1.13 µM and the IC50 [4] was 67.4 ± 1.45 µM.

For COc1cccc2c(=O)n(-c3ccc(S(N)(=O)=O)cc3)c(SCC(=O)Nc3cccc(C)c3)nc12 [Compound 7, 2-((8-Methoxy-4-oxo-3-(4-sulphamoylphenyl)-3,4-dihydroquinazolin-2-yl)thio)-N-(m-tolyl) acetamide], the IC50 [5] was 30.1 ± 1.3 µM, the IC50 [1] was 27.7 ± 1.85 µM and the IC50 [2] was 39.7 ± 2.27 µM. For the same compound, the melting point was > 350 °C, the IC50 [3] was 83.2 ± 0.9 µM and the IC50 [4] was 58.6 ± 1.52 µM.

In the case of CCOc1ccc(NC(=O)CSc2nc3c(OC)cccc3c(=O)n2-c2ccc(S(N)(=O)=O)cc2)cc1 [Compound 13, N-(p-Ethoxyphenyl)-2-((8-methoxy-4-oxo-3-(4-sulphamoylphenyl)-3,4-dihydroquin-azolin-2-yl)thio) acetamide], the IC50 [5] is reported as 54.4 ± 2.07 µM, the IC50 [1] is reported as 46.7 ± 1.23 µM and the IC50 [2] is reported as 38 ± 0.47 µM. It also gave a melting point of 300 to 302 °C, an IC50 [3] of 39 ± 1.4 µM and an IC50 [4] of 61.9 ± 1.35 µM.

With CCc1ccccc1NC(=O)CSc1nc2c(OC)cccc2c(=O)n1-c1ccc(S(N)(=O)=O)cc1 [Compound 9, N-(2-Ethylphenyl)-2-((8-methoxy-4-oxo-3-(4-sulphamoylphenyl)-3,4-dihydroquinazolin-2-yl)thio) acetamide] the “IC50, LoVo” value [5] was “no activity”, the “IC50, MCF-7” value [1] was “no activity” and the “IC50, HepG2” value [2] was “no activity”. For the same compound, the melting point was 288 to 290 °C, the “IC50, HUVEC” value [3] was “no activity” and the “IC50, A549” value [4] was “no activity”.

COc1cc(NC(=O)CSc2nc3c(OC)cccc3c(=O)n2-c2ccc(S(N)(=O)=O)cc2)cc(OC)c1 [Compound 14, N-(3,5-Dimethoxyphenyl)-2-((8-methoxy-4-oxo-3-(4-sulphamoylphenyl)-3,4-dihydroq-uinazolin-2-yl)thio) acetamide] gave an IC50 [5] of 38.3 ± 0.65 µM, an IC50 [1] of 34.6 ± 1.15 µM and an IC50 [2] of 72.5 ± 1.06 µM. The melting point was 240 to 242 °C, the IC50 [3] was 62.6 ± 2.34 µM and the IC50 [4] was 68.34 ± 0.42 µM.

With COc1ccc(NC(=O)CSc2nc3c(OC)cccc3c(=O)n2-c2ccc(S(N)(=O)=O)cc2)cc1 [Compound 12, 2-((8-Methoxy-4-oxo-3-(4-sulphamoylphenyl)-3,4-dihydroquinazolin-2-yl)thio)-N-(p-methoxyphenyl) acetamide] the “IC50, LoVo” value [5] was “no activity”, the “IC50, MCF-7” value [1] was “no activity” and the “IC50, HepG2” value [2] was “no activity”. For the same compound, the melting point was 296 to 298 °C, the “IC50, HUVEC” value [3] was “no activity” and the “IC50, A549” value [4] was “no activity”.

In the case of COc1cccc2c(=O)n(-c3ccc(S(N)(=O)=O)cc3)c(SCC(=O)Nc3ccccc3)nc12 [Compound 5, 2-((8-Methoxy-4-oxo-3–(4-sulphamoylphenyl)-3,4-dihydroquinazolin-2-yl)thio)-N-phenyl-acetamide], the “IC50, LoVo” value [5] is reported as “no activity”, the “IC50, MCF-7” value [1] is reported as “no activity” and the “IC50, HepG2” value [2] is reported as “no activity”. For the same compound, the melting point was > 350 °C, the “IC50, HUVEC” value [3] was “no activity” and the “IC50, A549” value [4] was “no activity”.
